Laboratory results reported in PubChem BioAssay (NCI).
Values joined by “and” are separate entries in the source; they are usually repeats but may differ in a detail not shown here. Equal values may be shown once.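 How tested: cells in 96-well plates exposed to compound for 48 hours at five concentrations. Abbreviation: GI50, concentration required for 50% inhibition of growth. TGI: total growth inhibition.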

Assays:
Assay in all cases: NCI anticancer screen, dose series, 48 h
PC-3 prostate = test system: PC-3 prostate
SW-620 colon = test system: SW-620 colon
786-0 renal = test system: 786-0 renal
CCRF-CEM leukemia = test system: CCRF-CEM leukemia
NCI-H460 lung = test system: NCI-H460 lung
SN12C renal = test system: SN12C renal
MOLT-4 leukemia = test system: MOLT-4 leukemia
RXF 393 renal = test system: RXF 393 renal
SF-295 CNS = test system: SF-295 CNS
SK-MEL-2 melanoma = test system: SK-MEL-2 melanoma

| SMILES | GI50 (PC-3 prostate) [µM] | TGI (PC-3 prostate) [µM] | GI50 (SW-620 colon) [µM] | TGI (SW-620 colon) [µM] | GI50 (786-0 renal) | TGI (786-0 renal) | GI50 (CCRF-CEM leukemia) [µM] | TGI (CCRF-CEM leukemia) [µM] | GI50 (NCI-H460 lung) [µM] | TGI (NCI-H460 lung) [µM] | GI50 (SN12C renal) [µM] | TGI (SN12C renal) [µM] | GI50 (MOLT-4 leukemia) | TGI (MOLT-4 leukemia) [µM] | GI50 (RXF 393 renal) [µM] | TGI (RXF 393 renal) | GI50 (SF-295 CNS) [µM] | TGI (SF-295 CNS) [µM] | TGI (SK-MEL-2 melanoma) | GI50 (SK-MEL-2 melanoma) [µM] |
| --- | --- | --- | --- | --- | --- | --- | --- | --- | --- | --- | --- | --- | --- | --- | --- | --- | --- | --- | --- | --- |
| CCCCCCCCCCCCCCCCn1cc[n+](C)c1 | 0.183 | 0.58 | 0.468 | 1.78 | 0.5 µM | 1.91 µM | 0.139 | 0.512 | 0.486 | 1.83 | 0.667 | 1.89 | 0.306 µM | 1.5 | 0.252 | 0.907 µM | 0.318 | 1.43 |  |  |
| C=CC12CCCCC1CC(C(=O)OC)=C(O)C2 (configuration not stated) |  |  |  | > 100 |  | > 100 µM |  | > 100 |  | > 100 |  | > 100 |  | > 100 |  | > 100 µM |  | > 100 | > 100 µM |  |
| NC1=NN(c2ccccc2)C(=O)C1C(=O)C(=O)Nc1ccccc1 (configuration not stated) |  |  |  | > 100 |  | > 100 µM |  | > 100 |  | > 100 |  | > 100 |  | > 100 |  |  |  | > 100 | > 100 µM |  |
| COc1ccc2cc3c4cc(OC)c(OC)cc4ccn3c2c1 |  |  |  | > 100 |  | > 100 µM |  | > 100 |  | > 100 |  | > 100 |  | > 100 |  | > 100 µM |  | > 100 | > 100 µM |  |
| COc1cc2c3c(n(CCCN=[N+]=[N-])c(=O)c2cc1OC)-c1ccccc1C3=O | > 100 | > 100 | 12 | > 100 | 4.68 µM | 69.2 µM | 3.37 | > 100 | 5.2 | > 100 | 13.7 | > 100 | 0.702 µM | 3.38 |  |  | 2.87 | 9.86 | > 100 µM | > 100 |
| CCOC(=O)Cc1csc(NC(=O)C(OC(=O)c2ccc(Cl)cc2)c2ccccc2)n1 (configuration not stated) | 35.1 | > 100 | 48.4 | > 100 | 42.8 µM | > 100 µM |  |  | 36.1 | > 100 | 37.8 | > 100 | 26 µM | > 100 | 28.6 | 95.8 µM | 24.6 | 56.8 | 50.7 µM | 23.8 |
| CC(=O)OCC1OC(SC2=N/C(=C\c3ccc(Br)s3)C(=O)N2c2ccccc2)C(OC(C)=O)C(OC(C)=O)C1OC(C)=O (configuration not stated) |  | > 100 |  | > 100 | 17.8 µM and > 100 µM | 55.4 µM and > 100 µM |  |  |  | > 100 |  | > 100 | > 100 µM and 37.7 µM | > 100 |  | 57.2 µM and > 100 µM |  | > 100 | > 100 µM and 48.9 µM |  |
| CCCCCCCCCCCCCCCCc1c(C(=O)OC)nc(NC#N)[nH]c1=O |  |  |  | > 25 |  | > 25 µM |  | > 25 |  | > 25 |  | > 25 |  | > 25 |  | > 25 µM |  | > 25 | > 25 µM |  |
| C=C(C)CC(C(=O)O)c1ccc(C)cc1 (configuration not stated) |  |  |  | > 100 |  | > 100 µM |  |  |  | > 100 |  | > 100 |  |  |  | > 100 µM |  | > 100 | > 100 µM |  |
| c1cc[c]([Ge]([O]c2cccc3cccnc23)([c]2ccccc2)[c]2ccccc2)cc1 |  |  | 3.02 | 7.46 | 4.7 µM | 15.7 µM |  |  | 3.37 | 12.2 | 4.52 | 16.5 |  |  | 1.88 | 5.49 µM | 11.2 | 23.8 | 11.7 µM | 2.59 |
| C=CCCn1nc(-c2ccccc2)oc1=O |  |  |  | > 100 |  | > 100 µM |  | > 100 |  | > 100 |  | > 100 |  | > 100 |  | > 100 µM |  | > 100 | > 100 µM |  |
| CCOc1ccc(-c2nc3ccc(-c4nc5ccc(N6CCN(C)CC6)cc5[nH]4)cc3[nH]2)cc1 | 0.352 | 6.19 | 0.234 | 1.17 | 0.527 µM and 0.198 µM | 1.57 µM and 0.809 µM | 0.316 | 1.87 | 0.489 | 1.67 | 0.342 | 1.61 | 0.299 µM | 1.81 |  |  | 0.518 | 2.63 | 2.49 µM | 1.07 |
| COc1ccc(Nc2ncc(I)c(NCCCNC(=O)C3CCC3)n2)cc1 |  |  | 9.28 | > 100 | 5.58 µM | 29.2 µM | 4.96 | > 100 | 5.19 | 36.8 | 1.46 | > 100 | 4.32 µM | > 100 | 1.27 | 6.54 µM | 3.5 | > 100 | 57.1 µM | 16.8 |
| COc1ccc(O)c(/C=N\Nc2ccccc2)c1 |  | > 100 |  | 22.6 |  | > 100 µM |  |  |  | > 100 |  | > 100 |  | 18.2 |  | > 100 µM |  |  | > 100 µM |  |
| O=C1CCCc2ccc([N+](=O)[O-])c(O)c21 |  |  |  | > 100 |  | > 100 µM |  | > 100 |  | > 100 |  | > 100 |  | > 100 |  | > 100 µM |  | > 100 | > 100 µM |  |
| CCCN(CCC)c1ccc(/C=N/NC(=O)c2cccnc2)c(C)c1 | 16.8 | 67.7 | 14.8 | 35.7 | 18.6 µM | 42.2 µM | 16.4 | 52.3 | 14.2 | 28.3 | 17.5 | 41.2 | 16.5 µM | 42.6 | 15.1 | 30.7 µM | 10.7 | 25.5 |  |  |
| CN(C)CC1(C)CC/C(=C\c2ccc(Cl)cc2)C1=O (configuration not stated) |  |  |  | 35.5 |  | > 100 µM |  | 68.4 |  | 54.6 |  | > 100 |  | 55.8 |  | 82.1 µM |  | > 100 | > 100 µM |  |
| CC(=O)N1c2ccccc2N(C(C)=O)C1c1ccc(C2N(C(C)=O)c3ccccc3N2C(C)=O)[nH]1 |  |  |  | > 100 |  | > 100 µM |  | > 100 |  | > 100 |  | > 100 |  | > 100 |  | > 100 µM |  | > 100 |  |  |
| C[C@]12Cc3conc3C(O)=C1CC[C@@H]1C2CC[C@@]2(C)C1CC[C@@H]2O (some centres not stated) |  |  |  | > 100 |  | > 100 µM |  | 55.5 |  | 40.7 |  | > 100 |  | 37.7 |  | 44.9 µM |  | 88.3 | 21.4 µM |  |
